Source: patent publication US5760176A, “Hydrophobic attachment site for adhesion peptides” (La Jolla Cancer Research Foundation, priority 1996, dated 1998)
Where two headings read alike, the source gives them in different places. Non-standard residues stand in square brackets, D forms with d. Residues, ends and D or L forms follow the SMILES beside them. Sar = CNCC(=O)O

Tested on: MG-63 cells
[1] = Table III, phenylalanine as a hydrophobic domain, 100 μg/well

Procedure: The peptides were solubilized in 70% EtOH at a starting concentration of 1 mg/ml. […] The remaining wells contained 100 μl of 70% EtOH. Taking 100 μl from the 1 mg/ml solution in the first two wells, a serial dilution was performed out to 0.15 μg/well for each peptide. The plates were allowed to dry overnight at 37° C. in the presence of a desiccator.
The following day the peptide coated plates were used in a standard adhesion assay as described in Example III, using MG-63 cells, an osteosarcoma cell line available from American Type Tissue Culture.
The plates were washed lX using PBS, (151 mM NaCl/10 mM sodium phosphate, pH 7.4). The plates were incubated with DMEM (0.1 ml/well) containing bovine serum albumin (BSA 2.5 mg/ml; Sigma Chemical Co., St. Louis, Mo.) for one hour. Two×10^5 cells/ml (MG-63) were suspended in DMEM, and BSA (2.5 mg/ml). 100 μl of cell suspension was added per well and the plates are incubated at 37° C. in 7.5% CO2 /92.5% air for one hour. Afterwards, the plate was washed once in PBS. Attached cells were then fixed with 3% paraformaldehyde and stained overnight with 1% toluidine blue in 10% formaldehyde. The following day, the excess stain was removed and the plates were washed with H2 O; 100 μl of a 1% sodium dodecyl sulfate (SDS) solution was added to each well. The level of cell attachment was then measured, using a kinetic microplate reader (Molecular Devices,) by assessing the optical density at 630 nm.

Row | Compound | percentage of maximum binding (cell attachment) | percentage of maximum binding (cell attachment) [1] | percentage of maximum binding (cell attachment) (Table III, 1.5 μg/well) | percentage of maximum binding (cell attachment) (Table III, 3 μg/well) | percentage of maximum binding (cell attachment) (Table III, 6 μg/well) | percentage of maximum binding (cell attachment) (Table III, 12 μg/well) | percentage of maximum binding (cell attachment) (Table III, 25 μg/well) | percentage of maximum binding (cell attachment) (Table III, 50 μg/well) | also measured
1 | CNCC(=O)N[C@H](CCCNC(=N)N)C(=O)NCC(=O)N[C@@H](CC(=O)O)C(=O)N[C@@H](CO)C(=O)N1CCC[C@H]1C(=O)N[C@@H](C)C(=O)N[C@@H](CO)C(=O)N[C@@H](CO)C(=O)N[C@@H](CCCCN)C(=O)N[C@@H](CC(C)C)C(=O)N[C@@H](CC(C)C)C(=O)N[C@@H](CC(C)C)C(=O)N[C@@H](CC(C)C)C(=O)N[C@@H](CC(C)C)C(=O)N[C@@H](CC(C)C)C(N)=O [nMeG(dR)GDSPASSKL6 NH2] (H-[Sar][dR]GDSPASSKLLLLLL-NH2) | 9 percentage of maximum binding | – | – | – | – | – | – | – | –
2 | nMeGRGDSPASSKRL5 RNH2 | – | 72 percentage of maximum binding | 34 percentage of maximum binding | 44 percentage of maximum binding | 60 percentage of maximum binding | 66 percentage of maximum binding | 58 percentage of maximum binding | 68 percentage of maximum binding | –
3 | CNCC(=O)N[C@H](CCCNC(=N)N)C(=O)NCC(=O)N[C@@H](CC(=O)O)C(=O)N[C@@H](CO)C(=O)N1CCC[C@H]1C(=O)N[C@@H](C)C(=O)N[C@@H](CO)C(=O)N[C@@H](CO)C(=O)N[C@@H](CCCCN)C(=O)N[C@@H](CO)C(=O)N[C@@H](CO)C(=O)N[C@@H](CO)C(=O)N[C@@H](CO)C(=O)N[C@@H](CCCNC(=N)N)C(=O)N[C@@H](CC(C)C)C(=O)N[C@@H](CC(C)C)C(=O)N[C@@H](CC(C)C)C(=O)N[C@@H](CC(C)C)C(=O)N[C@@H](CC(C)C)C(=O)N[C@@H](CC(C)C)C(=O)N[C@@H](CCCNC(=N)N)C(N)=O [nMeG(dR)GDSPASSKS4 RL6 RNH2] (H-[Sar][dR]GDSPASSKSSSSRLLLLLLR-NH2) | 76 percentage of maximum binding | – | – | – | – | – | – | – | –
4 | CNCC(=O)N[C@H](CCCNC(=N)N)C(=O)NCC(=O)N[C@@H](CC(=O)O)C(=O)N[C@@H](CO)C(=O)N1CCC[C@H]1C(=O)N[C@@H](C)C(=O)N[C@@H](CO)C(=O)N[C@@H](CO)C(=O)N[C@@H](CCCCN)C(=O)N[C@@H](CO)C(=O)N[C@@H](CO)C(=O)N[C@@H](CCCNC(=N)N)C(=O)N[C@@H](CC(C)C)C(=O)N[C@@H](CC(C)C)C(=O)N[C@@H](CC(C)C)C(=O)N[C@@H](CC(C)C)C(=O)N[C@@H](CC(C)C)C(=O)N[C@@H](CC(C)C)C(=O)N[C@@H](CCCNC(=N)N)C(N)=O [nMeG(dR)GDSPASSKS2 RL6 RNH2] (H-[Sar][dR]GDSPASSKSSRLLLLLLR-NH2) | 38 percentage of maximum binding | – | – | – | – | – | – | – | –
5 | nMEGRGDSPASSKRF6 RNH2 | – | 70 percentage of maximum binding | 50 percentage of maximum binding | 54 percentage of maximum binding | 57 percentage of maximum binding | 52 percentage of maximum binding | 56 percentage of maximum binding | 75 percentage of maximum binding | –
6 | nMeGRGDSPASSKS3 RF6 RNH2 | – | 69 percentage of maximum binding | 70 percentage of maximum binding | 70 percentage of maximum binding | 65 percentage of maximum binding | 66 percentage of maximum binding | 60 percentage of maximum binding | 69 percentage of maximum binding | –
7 | CCCCCCCCCCCCCC(=O)O [Myristic acid] | – | – | – | – | – | – | – | – | percentage of maximum binding (cell attachment) (Table IV, myristic acid as hydrophobic carrier, 100 μg/well): 33 percentage of maximum binding; percentage of maximum binding (cell attachment) (Table IV, 6 μg/well): 45 percentage of maximum binding; percentage of maximum binding (cell attachment) (Table IV, 12 μg/well): 75 percentage of maximum binding; percentage of maximum binding (cell attachment) (Table IV, 25 μg/well): 50 percentage of maximum binding; percentage of maximum binding (cell attachment) (Table IV, 50 μg/well): 30 percentage of maximum binding
8 | XG(R)GDSPASSKL4 NH2 [Peptide L4] | – | – | – | – | – | – | – | – | percentage of maximum binding (cell attachment) (Table II, 1.5 μg/well peptide, MG-63 cells): 1 percentage of maximum binding; percentage of maximum binding (cell attachment) (Table II, 3 μg/well peptide, MG-63 cells): 1 percentage of maximum binding; percentage of maximum binding (cell attachment) (Table II, 6 μg/well peptide, MG-63 cells): 2 percentage of maximum binding; percentage of maximum binding (cell attachment) (Table II, 12 μg/well peptide, MG-63 cells): 10 percentage of maximum binding; percentage of maximum binding (cell attachment) (Table II, 25 μg/well peptide, MG-63 cells): 16 percentage of maximum binding; percentage of maximum binding (cell attachment) (Table II, 50 μg/well peptide, MG-63 cells): 12 percentage of maximum binding; percentage of maximum binding (cell attachment) (Table II, 100 μg/well peptide dried onto well, MG-63 cells): 44 percentage of maximum binding; promotion of cell attachment (result in words) (peptide coated 100 to 1.5 μg/well, MG-63 cells, summary of Table II): promoted marginal cell attachment only at the highest concentration of 100 μg/well
9 | nMeG(dR)GDSPASSKRF4 RNH2 [nMeGRGDSPASSKRF4 RNH2] | – | 70 percentage of maximum binding | 34 percentage of maximum binding | 50 percentage of maximum binding | 56 percentage of maximum binding | 59 percentage of maximum binding | 60 percentage of maximum binding | 73 percentage of maximum binding | –
